Consider 16 compounds from patent publication US9133128B2, “Pyrazole derivatives as cannabinoid receptor 1 antagonists” (Research Triangle Institute, priority 2011, dated 2015).

Where two headings read alike, the source gives them in different places.

In one data set the test system is MDCK-MDR. Kind of data set: MDCK-MDR transport (apical to basal). Type of data set: in vitro ADME. The conditions noted are these: Table 4.
For data set [1], the target named is T1, CB1 (Homo sapiens, UniProt P21554).
T1 construct: expressed in transfected cells; host or cells: CHO-K1 (membranes)
As to the kind of experiment: Radioligand displacement of [3H]SR141716 at CB1. Type of data set: binding. (In general: Loss of bound radioactivity is the signal in a displacement assay; it reports binding, not function.)

Data set [2] deals with T1, CB1. Kind of data set: Displacement of [3H]CP55940 in membranes of CHO-K1 cells over-expressing CB1. Type of data set: binding. The conditions noted are these: for Binding Selectivity using CP55940 Displacement: CB2 Ki over CB1 Ki.
The next data set addresses T2, CB2 (Homo sapiens, UniProt P34972).
T2 construct: expressed in transfected cells; host or cells: CHO-K1 (membranes)
Kind of data set: Displacement of [3H]CP55940 in membranes of CHO-K1 cells over-expressing CB2. Type of data set: binding. How it is done:
All compounds were characterized by H^1 NMR and evaluated using a calcium mobilization assay. Each compound was pharmacologically characterized using a functional fluorescent CB1 activated Gαq16-coupled intracellular calcium mobilization assay in CHO-K1 cells as has been previously described and apparent affinity (Ke) values were determined. See Zhang et al., J. Med. Chem. 2010, 53, 7048, which is incorporated herein by reference. Further characterization of select compounds was performed using radioligand displacement of [3H]1 and equilibrium dissociation constant (Ki) values were determined. Selectivity of these compounds at CB1 versus CB2 was also determined by obtaining Ki values at either receptor using displacement of [3H]CP55940 in membranes of CHO-K1 cells over-expressing either receptor. Data reported are average values from 3-6 measurements.
Select compounds were chosen for further study in radioligand displacement assays using radiolabeled rimonobant, SR141716 ([^3H]1). […] Selectivity against the CB2 receptor was determined by comparing the compound displacement of radiolabeled CP55940, which is a cannabinoid known to act as a full agonist at both CB1 and CB2 receptors. In general, tested compounds were selective for CB1 over CB2.

Data set [3] addresses T1, CB1. Kind of data set: CB1 activated Gαq16-coupled intracellular calcium mobilization assay in CHO-K1 cells (apparent affinity Ke). Type of data set: cell-based. In general terms: Calcium flux is commonly read through the fluorescence of an indicator in the cells.
[4] abbreviates: Table 4, read-out: Ki (nM) v. [3H] SR141716 at CB1.
Where [5] appears, read: Table 4, read-out: Ki (nM) v. [3H] CP55940 at CB1.
Where [6] appears, read: Table 4, read-out: Ki (nM) v. [3H] CP55940 at CB2.
Where [7] appears, read: Table 4, calcium mobilization, read-out: Ke (nM) at CB1.

T1 sequence (P21554 whole entry): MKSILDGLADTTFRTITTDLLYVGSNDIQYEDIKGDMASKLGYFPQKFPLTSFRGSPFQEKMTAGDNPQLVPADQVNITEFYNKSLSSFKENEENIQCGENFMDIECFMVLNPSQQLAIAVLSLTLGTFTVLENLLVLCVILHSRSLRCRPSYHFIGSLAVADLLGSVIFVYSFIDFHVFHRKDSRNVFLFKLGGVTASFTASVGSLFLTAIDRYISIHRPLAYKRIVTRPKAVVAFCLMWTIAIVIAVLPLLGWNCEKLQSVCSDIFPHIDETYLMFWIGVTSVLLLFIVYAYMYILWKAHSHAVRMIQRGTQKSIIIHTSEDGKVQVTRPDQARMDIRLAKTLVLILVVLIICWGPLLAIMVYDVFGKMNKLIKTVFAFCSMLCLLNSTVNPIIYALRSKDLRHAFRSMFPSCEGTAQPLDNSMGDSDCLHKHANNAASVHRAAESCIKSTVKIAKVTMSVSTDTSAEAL
T2 sequence (P34972 whole entry): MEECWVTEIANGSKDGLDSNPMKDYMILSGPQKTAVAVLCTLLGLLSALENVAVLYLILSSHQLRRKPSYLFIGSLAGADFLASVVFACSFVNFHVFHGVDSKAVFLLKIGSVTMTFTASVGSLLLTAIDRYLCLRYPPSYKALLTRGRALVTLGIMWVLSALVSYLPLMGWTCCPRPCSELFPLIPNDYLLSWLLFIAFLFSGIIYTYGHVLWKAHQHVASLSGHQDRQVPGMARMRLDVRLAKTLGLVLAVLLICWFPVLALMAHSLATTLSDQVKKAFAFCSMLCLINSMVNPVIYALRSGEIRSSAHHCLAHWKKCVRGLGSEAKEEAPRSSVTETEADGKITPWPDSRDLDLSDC

Usually Ki stands for a dissociation constant, usually derived from enzyme kinetics or from competition with a known ligand. For the compound `Cc1c(C(=O)N2CCC(NS(C)(=O)=O)(c3ccccc3)CC2)nn(-c2ccc(Cl)cc2Cl)c1-c1ccc(Cl)cc1` [Cl, phenyl, NHSO2CH3, N-(1-{[5-(4-chlorophenyl)-1-(2,4-dichlorophenyl)-4-methyl-1H-pyrazol-3-yl]carbonyl}-4-phenylpiperidin-4-yl)methanesulfonamide], the “% MDCK-MDR transport (apical to basal)” value in the data set on MDCK-MDR came to 3.14 ± 0.89%. For the same compound, the figures for the Ki on CB1 [1] (setting [4]), at CB1 [2] (setting [5]) and at CB2 (setting [6]) were 3.28 nM, 7.27 nM and 41 nM, respectively. Further, the “Binding Selectivity using CP55940 Displacement” value (“Binding Selectivity” below) on CB1 [2] (Table 4) came out at 5.6.
Turning to `CC(=O)NC1(c2ccccc2)CCN(C(=O)c2nn(-c3ccc(Cl)cc3Cl)c(-c3ccc(Cl)cc3)c2C)CC1` [Cl, phenyl, NHC(O)CH3, N-(1-{[5-(4-chlorophenyl)-1-(2,4-dichlorophenyl)-4-methyl-1H-pyrazol-3-yl]carbonyl}-4-phenylpiperidin-4-yl)acetamide], the Kb on CB1 [3] (setting [7]) amounted to 201 nM. Also, the Ki on CB1 [1] (setting [4]) turned out to be 13.7 nM; at CB1 [2] (setting [5]) it was 62.6 nM; on CB2 (setting [6]) it was 214 nM. In addition, at CB1 [2] (Table 4), the “Binding Selectivity” value is on record as 3.4.
Take `Cc1c(C(=O)N2CCC(NC(=O)NC(C)(C)C)(c3ccccc3)CC2)nn(-c2ccc(Cl)cc2Cl)c1-c1ccc(Cl)cc1` [Cl, phenyl, NHC(O)NH(t-butyl), 3-tert-butyl-1-(1-{[5-(4-chlorophenyl)-1-(2,4-dichlorophenyl)-4-methyl-1H-pyrazol-3-yl]carbonyl}-4-phenylpiperidin-4-yl)urea]: the “% MDCK-MDR transport (apical to basal)” value with MDCK-MDR is under 1%. Further, the inhibition constant Ki on CB1 [1] (setting [4]) was 18.1 nM; on CB1 [2] (setting [5]), 47.1 nM; at CB2 (setting [6]), at least 20000 nM. The “Binding Selectivity” value on CB1 [2] (Table 4) is recorded as 424.6.
Consider `Cc1c(C(=O)N2CCC(C(=O)NC(C)(C)C)(c3ccccc3)CC2)nn(-c2ccc(Cl)cc2Cl)c1-c1ccc(Cl)cc1` [Cl, phenyl, C(O)NH(t-butyl), N-(tert-butyl)-1-(5-(4-chlorophenyl)-1-(2,4-dichlorophenyl)-4-methyl-1H-pyrazole-3-carbonyl)-4-phenylpiperidine-4-carboxamide], for which the “% MDCK-MDR transport (apical to basal)” value in the data set with MDCK-MDR is given as under 1%. Moreover, the “Binding Selectivity” value on CB1 [2] (Table 4) is given as 421.6. For the same compound, the Ki at CB1 [2] (setting [5]) is 19.9 nM; on CB2 (setting [6]) it was 8390 nM.
As to `Cc1c(C(=O)NCC2CCC(CNS(C)(=O)=O)CC2)nn(-c2ccc(Cl)cc2Cl)c1-c1ccc(Cl)cc1` (mixture of isomers), the Ki at CB1 [1] (Table 3, radioligand [3H]SR141716, read-out: Ki(μM) CB1 SR141716) is 8 nM; at CB1 [2] (Table 3, radioligand [3H]CP55940, read-out: Ki(μM) CB1 CP55940), 36 nM; at CB2 (Table 3, radioligand [3H]CP55940, read-out: Ki(μM) CB2 CP55940) it was 960 nM.
Take `CCCCNC(=O)NC1(c2ccccc2)CCN(C(=O)c2nn(-c3ccc(Cl)cc3Cl)c(-c3ccc(Cl)cc3)c2C)CC1` [Cl, phenyl, NHC(O)NHC4H9, 3-butyl-1-(1-{[5-(4-chlorophenyl)-1-(2,4-dichlorophenyl)-4-methyl-1H-pyrazol-3-yl]carbonyl}-4-phenylpiperidin-4-yl)urea]: the Kb at CB1 [3] (setting [7]) is 0.41 nM. Further, on CB1 [2] (Table 4), the “Binding Selectivity” value is listed as 178.1. Also, the figures for the Ki on CB1 [2] (setting [5]) and on CB2 (setting [6]) were 15.5 nM and 2760 nM, respectively.
As for `Cc1c(C(=O)N2CCC(O)(c3ccccc3)CC2)nn(-c2ccc(Cl)cc2Cl)c1-c1ccc(N(C)C)cc1` [N(CH3)2, phenyl, OH, 1-{[1-(2,4-dichlorophenyl)-5-[4-(dimethylamino)phenyl]-4-methyl-1H-pyrazol-3-yl]carbonyl}-4-phenylpiperidin-4-ol], the Kb at CB1 [3] (setting [7]) was 679 nM. Also, the inhibition constant Ki was 72.5 nM at CB1 [1] (setting [4]), 384 nM on CB1 [2] (setting [5]) and 400 nM on CB2 (setting [6]). Besides, the “Binding Selectivity” value at CB1 [2] (Table 4) is on record as 1.0.
On to `Cc1c(C(=O)N2CCC(NC(=O)NC(C)C)(c3ccccc3)CC2)nn(-c2ccc(Cl)cc2Cl)c1-c1ccc(Cl)cc1` [Cl, phenyl, NHC(O)NHCH(CH3)2, 1-(1-{[5-(4-chlorophenyl)-1-(2,4-dichlorophenyl)-4-methyl-1H-pyrazol-3-yl]carbonyl}-4-phenylpiperidin-4-yl)-3-(propan-2-yl)urea], for which, in the data set on MDCK-MDR, the “% MDCK-MDR transport (apical to basal)” value was under 1%. Besides, on CB1 [2] (Table 4), the “Binding Selectivity” value was determined as 364.0. Besides, the Ki at CB1 [2] (setting [5]) came out at 13.5 nM; on CB2 (setting [6]), 4910 nM.
On to `Cc1c(C(=O)N2CCC(O)(c3ccccc3)CC2)nn(-c2ccc(Cl)cc2Cl)c1-c1ccc(Cl)cc1` [Cl, phenyl, OH, 1-{[5-(4-chlorophenyl)-1-(2,4-dichlorophenyl)-4-methyl-1H-pyrazol-3-yl]carbonyl}-4-hydroxy-4-phenylpiperidine], for which the Ki on CB1 [1] (setting [4]) is 9.63 nM; at CB1 [2] (setting [5]), 67.4 nM; on CB2 (setting [6]), 831 nM. Also, at CB1 [2] (Table 4), the “Binding Selectivity” value stood at 12.3.
Take `Cc1c(C(=O)N2CCC(NC(=O)OC(C)(C)C)(c3ccccc3)CC2)nn(-c2ccc(Cl)cc2Cl)c1-c1ccc(Cl)cc1` [Cl, phenyl, NHC(O)O(t-butyl), tert-Butyl N-(1-{[5-(4-chlorophenyl)-1-(2,4-dichlorophenyl)-4-methyl-1H-pyrazol-3-yl]carbonyl}-4-phenylpiperidin-4-yl)carbamate]: the “% MDCK-MDR transport (apical to basal)” value in the data set on MDCK-MDR is under 1%. For the same compound, the Ki on CB1 [1] (setting [4]) turned out to be 6.02 nM; at CB1 [2] (setting [5]), 42.3 nM; at CB2 (setting [6]) it was 2110 nM. Also, the “Binding Selectivity” value on CB1 [2] (Table 4) turned out to be 48.9.
`Cc1c(C(=O)N2CCC(NC(=O)NC3CCCCC3)(c3ccccc3)CC2)nn(-c2ccc(Cl)cc2Cl)c1-c1ccc(Cl)cc1` [Cl, phenyl, NHC(O)NH(cyclohexyl), 3-(1-{[5-(4-chlorophenyl)-1-(2,4-dichlorophenyl)-4-methyl-1H-pyrazol-3-yl]carbonyl}-4-phenylpiperidin-4-yl)-1-cyclohexylurea]: on CB1 [2] (Table 4), the “Binding Selectivity” value is 25.3. Further, the Ki at CB1 [2] (setting [5]) was 792 nM; at CB2 (setting [6]), at least 20000 nM.
Take `CCOC(=O)N1CCC(NC(=O)c2nn(-c3ccc(Cl)cc3Cl)c(-c3ccc(Cl)cc3)c2C)CC1` [OC2H5, Ethyl 4-[5-(4-Chlorophenyl)-1-(2,4-dichlorophenyl)-4-methyl-1H-pyrazole-3-amido]piperidine-1-carboxylate]: on CB1 [3], the Kb was found to be 28.6 nM. Moreover, at CB1 [2] (Table 5), the “Binding Selectivity” value is listed as 551.1. Moreover, the Ki on CB1 [2] (Table 5, read-out: Ki (nM) v. [3H] CP55940 at CB1) is 14.6 nM; at CB2 (Table 5, read-out: Ki (nM) v. [3H] CP55940 at CB2), 8070 nM.
Turning to `Cc1c(C(=O)N2CCC(C(N)=O)(c3ccccc3)CC2)nn(-c2ccc(Cl)cc2Cl)c1-c1ccc(Br)cc1` [Br, phenyl, CONH2, 1-{[5-(4-bromophenyl)-1-(2,4-dichlorophenyl)-4-methyl-1H-pyrazol-3-yl]carbonyl}-4-phenylpiperidine-4-carboxamide], the figures for the Ki on CB1 [1] (setting [4]), on CB1 [2] (setting [5]) and on CB2 (setting [6]) were 2.67 nM, 14.5 nM and 3280 nM, respectively. Besides, at CB1 [2] (Table 4), the “Binding Selectivity” value is recorded as 226.3.
Turning to `Cc1c(C(=O)N2CCC(N)(c3ccccc3)CC2)nn(-c2ccc(Cl)cc2Cl)c1-c1ccc(Cl)cc1` [Cl, phenyl, NH2, 1-{[5-(4-chlorophenyl)-1-(2,4-dichlorophenyl)-4-methyl-1H-pyrazol-3-yl]carbonyl}-4-phenylpiperidin-4-amine], at CB1 [3] (setting [7]), the Kb came out at 485 nM. For the same compound, the values for the Ki at CB1 [1] (setting [4]), at CB1 [2] (setting [5]) and on CB2 (setting [6]) were 30.5 nM, 104 nM and 1130 nM, respectively. Besides, the “Binding Selectivity” value on CB1 [2] (Table 4) was found to be 10.8.
With `CCNC1(C(N)=O)CCN(C(=O)c2nn(-c3ccc(Cl)cc3Cl)c(-c3ccc(Cl)cc3)c2C)CC1` [Cl, NHC2H5, C(O)NH2, 1-{[5-(4-chlorophenyl)-1-(2,4-dichlorophenyl)-4-methyl-1H-pyrazol-3-yl]carbonyl}-4-(ethylamino)piperidine-4-carboxamide], the Ki on CB1 [1] (setting [4]) is 34.6 nM; at CB1 [2] (setting [5]), 78.4 nM; at CB2 (setting [6]), 2220 nM.
With `Cc1c(C(=O)N2CCC(C(N)=O)(c3ccccc3)CC2)nn(-c2ccc(Cl)cc2Cl)c1-c1ccc(Cl)cc1` [Cl, phenyl, C(O)NH2, 1-{[5-(4-chlorophenyl)-1-(2,4-dichlorophenyl)-4-methyl-1H-pyrazol-3-yl]carbonyl}-4-phenylpiperidine-4-carboxamide], the “% MDCK-MDR transport (apical to basal)” value in the data set on MDCK-MDR worked out at 8.1 ± 11.5%. The Kb on CB1 [3] amounted to 0.45 nM. The Ki was 0.44 nM on CB1 [1] (setting [4]), 3.44 nM on CB1 [2] (setting [5]) and 5500 nM on CB2 (setting [6]). The “Binding Selectivity” value on CB1 [2] (Table 4) was 1600.0.
